Test results as given in PubChem BioAssay AID2060487 (Molecular Pharmacology Branch, DTP, NCI, 2025).

Tested on: 997537-175-T-J1-PDC complex spheroid viability
Assay: Anticancer human tumor 997537-175-T-J1-PDC patient-derived colon adenocarcinoma cell line growth inhibition [GQUAD]
Conditions: for IC50: curve of first compound; for viability, T/C: stronger effect = lower value
Excerpt: DNA G-quadruplex Stabilizer Agents in Combinations in Complex Spheroids
A high-throughput screen of multi-cell type tumor spheroids was designed to identify active combinations of DNA G-quadruplex stabilizer agents and targeted small molecules. Complex spheroids include a stromal component modeled by human endothelial cells (HUVEC) and fibroblasts modeled by human mesenchymal stem cells (MSCs). The concentration ranges selected for each drug and investigational agent were based upon clinically achievable concentrations if the clinical Cmax of the agent was known.
Compounds. The drugs and investigational agents: pidnarulex (CX-5461; NSC782164), APTO-253 (NSC789042), BRACO-19 (NSC847499), peposertib (NSC802822), ceralasertib (NSC780249), elimusertib (NSC800525), camonsertib (NSC841442), AZD-1390 (NSC803789), olaparib (NSC753686), talazoparib (NSC767125), ART-558 (NSC835418), sotorasib (NSC818433), MRTX-1133 (NSC836407), SN-38 (NSC673596), topotecan (NSC609699), etoposide (NSC141540), doxorubicin (NSC123127), gemcitabine (NSC613327), 5-fluorouracil (NSC19893), paclitaxel (NSC125973), vemurafenib (NSC761431), panobinostat (NSC761190), R-306465 (JNJ-16241199; NSC773264), adavosertib (NSC754352), TP-3654 (NSC805149), carboplatin (NSC241240), KSQ-4279 (NSC840948), and staurosporine (NSC755774) were obtained from the National Cancer Institute (NCI) Developmental Therapeutics Program Chemical Repository (34). The FDA-approved anticancer drug set is available from the NCI Developmental Therapeutics Program. […] The stock solutions were prepared in dimethyl sulfoxide (DMSO, Sigma-Aldrich, St. Louis, MO, cat. D2650) at 800-fold the tested concentration and stored at -70 degrees C prior to their use. All drugs and investigational agents were tested over a range starting from a high concentration at or near the clinical Cmax and decreasing in half-log increments. If the clinical Cmax for an agent had not been determined, the highest concentration tested was 10 microM.
2.3 Cell Culture. All cells were maintained in an incubator at 37 degrees C and 5% CO2 with 95% humidity. The PDC lines were cultured according to standard operating procedures established by the NCI PDMR. All PDCs were thawed and cultured in Matrigel-coated flasks prepared with a working solution of 1X Ham's F-12 nutrient mix, without supplementation (Invitrogen, cat. 11765054), 100 U/mL penicillin-streptomycin (Invitrogen, cat. 15140122), and 2.5% Matrigel (Corning Inc., cat. 354248) for the first three passages. The 857933-349-R-J2-PDC line was cultured in 6C/Colon 1B media, which includes advanced DMEM/F-12 (Thermo Fisher Scientific, cat. 12634028), 10 mM HEPES (Thermo Fisher Scientific, cat. 15630080), 1X GlutaMAX supplement (Thermo Fisher Scientific, cat. 35050061), 0.1 mg/mL primocin (InvivoGen, cat. ant-pm-2), 10% defined fetal bovine serum, heat inactivated (HyClone Laboratories Inc., cat. SH30070.03HI), 50% L-WRN conditioned media (ATCC, cat. CRL-3276), 1.25 mM N-Acetyl-L-cysteine (Sigma-Aldrich, cat. A9165), 10 mM nicotinamide (Sigma-Aldrich, cat. N0636), 1X B-27 supplement (Thermo Fisher Scientific, cat. 17504044), 1X N-2 supplement (Thermo Fisher Scientific, cat. 17502048), 10 microM Y-27632 dihydrochloride (Tocris Bioscience, cat. 1254), and 50 ng/mL human EGF recombinant protein (Thermo Fisher Scientific, cat. PHG0311). The 485176-168-R4-J1-PDC line was cultured in Panc media, which includes all 6C/Colon 1B media components plus 100 ng/mL human FGF-10 (Thermo Fisher Scientific, cat. 100-26), 500 nM SB-431542 (Selleckchem, cat. S1067), and gastrin (Tocris, cat. 3006).
[…]

[1] = second compound 0.0316 µM, first compound 0.0316 µM
[2] = second compound 0.0316 µM, first compound 0.1 µM
[3] = second compound 0.0316 µM, first compound 0.316 µM
[4] = second compound 0.0316 µM, first compound 1 µM
[5] = second compound 0.0316 µM, first compound 3.16 µM
[6] = second compound 0.0316 µM, first compound 10 µM
[7] = second compound 0.1 µM, first compound 0.0316 µM
[8] = second compound 0.1 µM, first compound 0.1 µM
[9] = second compound 0.1 µM, first compound 0.316 µM
[10] = second compound 0.1 µM, first compound 1 µM
[11] = second compound 0.1 µM, first compound 3.16 µM
[12] = second compound 0.1 µM, first compound 10 µM
[13] = second compound 0.316 µM, first compound 0.0316 µM
[14] = second compound 0.316 µM, first compound 0.1 µM
[15] = second compound 0.316 µM, first compound 0.316 µM
[16] = second compound 0.316 µM, first compound 1 µM
[17] = second compound 0.316 µM, first compound 3.16 µM
[18] = second compound 0.316 µM, first compound 10 µM
[19] = second compound 1 µM, first compound 0.0316 µM
[20] = second compound 1 µM, first compound 0.1 µM
[21] = second compound 1 µM, first compound 0.316 µM
[22] = second compound 1 µM, first compound 1 µM
[23] = second compound 1 µM, first compound 3.16 µM
[24] = second compound 1 µM, first compound 10 µM
[25] = second compound 3.16 µM, first compound 0.0316 µM
[26] = second compound 3.16 µM, first compound 0.1 µM
[27] = second compound 3.16 µM, first compound 0.316 µM
[28] = second compound 3.16 µM, first compound 1 µM
[29] = second compound 3.16 µM, first compound 3.16 µM
[30] = second compound 3.16 µM, first compound 10 µM
[31] = second compound 10 µM, first compound 0.0316 µM
[32] = second compound 10 µM, first compound 0.1 µM
[33] = second compound 10 µM, first compound 0.316 µM
[34] = second compound 10 µM, first compound 1 µM
[35] = second compound 10 µM, first compound 3.16 µM
[36] = second compound 10 µM, first compound 10 µM
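Further: spheroids exposed to the agents for 7 days.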
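Wherever viability, T/C is given: 100% = DMSO vehicle control viability.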

`COc1cccc2c1C(=O)c1c(O)c3c(c(O)c1C2=O)CC(O)(C(=O)CO)CC3OC1CC(N)C(O)C(C)O1` (stereo unspecified) + Cc1[nH]c2ccc(F)cc2c1-c1nc2c3cccnc3c3ncccc3c2[nH]1 gave an IC50 (second compound 0.0316 µM) greater than 10 µM, an IC50 (second compound 0.1 µM) of 9.79 µM and an IC50 (second compound 0.316 µM) of 8.04 µM. The IC50 (second compound 1 µM) was 8.48 µM, the IC50 (second compound 3.16 µM) was 6.46 µM and the IC50 (second compound 10 µM) was 5.6 µM. It also gave a viability, T/C [1] of 97.6%, a viability, T/C [2] of 82.8% and a viability, T/C [3] of 101%. It also gave a viability, T/C [4] of 97.7%, a viability, T/C [5] of 95.5% and a viability, T/C [6] of 51.1%. For the same compound, the viability, T/C [7] was 80.7%, the viability, T/C [8] was 78% and the viability, T/C [9] was 95.4%. For the same compound, the viability, T/C [10] was 91.7%, the viability, T/C [11] was 96.9% and the viability, T/C [12] was 49.2%. The viability, T/C [13] was 101%, the viability, T/C [14] was 83.3% and the viability, T/C [15] was 80.7%. It also gave a viability, T/C [16] of 96.9%, a viability, T/C [17] of 79.8% and a viability, T/C [18] of 43.1%. It also gave a viability, T/C [19] of 76.2%, a viability, T/C [20] of 91.3% and a viability, T/C [21] of 92.7%. The viability, T/C [22] was 85.4%, the viability, T/C [23] was 80.3% and the viability, T/C [24] was 44.9%. The viability, T/C [25] was 74%, the viability, T/C [26] was 64.4% and the viability, T/C [27] was 84.1%. For the same compound, the viability, T/C [28] was 83.6%, the viability, T/C [29] was 95.1% and the viability, T/C [30] was 31.4%. The viability, T/C [31] was 67.6%, the viability, T/C [32] was 86.5% and the viability, T/C [33] was 94.1%. For the same compound, the viability, T/C [34] was 88.7%, the viability, T/C [35] was 66.7% and the viability, T/C [36] was 33.2%.
With `Cc1cccc(N(C)C(=O)C2C(O)CCN2c2nc(C)cc(C(F)(F)F)c2C#N)c1` (stereo unspecified) + Cc1[nH]c2ccc(F)cc2c1-c1nc2c3cccnc3c3ncccc3c2[nH]1 the IC50 (second compound 0.0316 µM) was greater than 10 µM, the IC50 (second compound 0.1 µM) was greater than 10 µM and the IC50 (second compound 0.316 µM) was greater than 10 µM. It also gave an IC50 (second compound 1 µM) greater than 10 µM, an IC50 (second compound 3.16 µM) greater than 10 µM and an IC50 (second compound 10 µM) greater than 10 µM. For the same compound, the viability, T/C [1] was 104%, the viability, T/C [2] was 82.7% and the viability, T/C [3] was 107%. For the same compound, the viability, T/C [4] was 75.4%, the viability, T/C [5] was 85.6% and the viability, T/C [6] was 96%. It also gave a viability, T/C [7] of 101%, a viability, T/C [8] of 97.8% and a viability, T/C [9] of 96%. The viability, T/C [10] was 80.1%, the viability, T/C [11] was 99% and the viability, T/C [12] was 90.6%. The viability, T/C [13] was 101%, the viability, T/C [14] was 74% and the viability, T/C [15] was 92.8%. For the same compound, the viability, T/C [16] was 95%, the viability, T/C [17] was 100% and the viability, T/C [18] was 106%. It also gave a viability, T/C [19] of 79.4%, a viability, T/C [20] of 95.3% and a viability, T/C [21] of 108%. It also gave a viability, T/C [22] of 85.4%, a viability, T/C [23] of 104% and a viability, T/C [24] of 92.7%. For the same compound, the viability, T/C [25] was 57.9%, the viability, T/C [26] was 89.9% and the viability, T/C [27] was 76.9%. It also gave a viability, T/C [28] of 79.2%, a viability, T/C [29] of 69% and a viability, T/C [30] of 85.6%. For the same compound, the viability, T/C [31] was 80.5%, the viability, T/C [32] was 93.8% and the viability, T/C [33] was 80.6%. It also gave a viability, T/C [34] of 76.8%, a viability, T/C [35] of 105% and a viability, T/C [36] of 95.6%.
In the case of `CC1COCCN1c1cc(-c2ccnn2C)c2ccnc(-c3ccn[nH]3)c2n1` (stereo unspecified) + Cc1cnc(CNC(=O)c2c(=O)c3ccc(N4CCCN(C)CC4)nc3n3c2sc2ccccc23)cn1, the IC50 (second compound 0.0316 µM) is reported as 0.147 µM, the IC50 (second compound 0.1 µM) is reported as 0.157 µM and the IC50 (second compound 0.316 µM) is reported as less than 0.0316 µM. The IC50 (second compound 1 µM) was greater than 10 µM, the IC50 (second compound 3.16 µM) was greater than 10 µM and the IC50 (second compound 10 µM) was less than 0.0316 µM. The viability, T/C [1] was 80.7%, the viability, T/C [2] was 54% and the viability, T/C [3] was 37.4%. The viability, T/C [4] was 33.7%, the viability, T/C [5] was 43.5% and the viability, T/C [6] was 53.1%. It also gave a viability, T/C [7] of 65.9%, a viability, T/C [8] of 53.8% and a viability, T/C [9] of 48.4%. For the same compound, the viability, T/C [10] was 29.8%, the viability, T/C [11] was 51.7% and the viability, T/C [12] was 55.2%. For the same compound, the viability, T/C [13] was 52.7%, the viability, T/C [14] was 39% and the viability, T/C [15] was 34.8%. It also gave a viability, T/C [16] of 37.6%, a viability, T/C [17] of 48.5% and a viability, T/C [18] of 45%. It also gave a viability, T/C [19] of 55.3%, a viability, T/C [20] of 58.5% and a viability, T/C [21] of 67.5%. The viability, T/C [22] was 57.5%, the viability, T/C [23] was 58.2% and the viability, T/C [24] was 51%. It also gave a viability, T/C [25] of 63.1%, a viability, T/C [26] of 63.7% and a viability, T/C [27] of 48.5%. For the same compound, the viability, T/C [28] was 67.5%, the viability, T/C [29] was 57.8% and the viability, T/C [30] was 48%. It also gave a viability, T/C [31] of 43.1%, a viability, T/C [32] of 52% and a viability, T/C [33] of 66.7%. It also gave a viability, T/C [34] of 54.9%, a viability, T/C [35] of 39.8% and a viability, T/C [36] of 63.3%.
